Patent US20220031710A1, “USE OF ERK5 INHIBITORS FOR TREATING GLIOMAS IN PEDIATRIC SUBJECTS” (UNIVERSITY OF PITTSBURGH - OF THE COMMONWEALTH SYSTEM OF …, priority 2019, published 2022)
Where a SMILES comes first, the peptide text is derived from it. The star is where a group is joined. Cbz = O=C(OCc1ccccc1)*

What was measured:
[1] = tested on: NSCs; experiment: Direct Trypan-Blue automated cell count of NSCs treated with EZH2 inhibitor; assay type: cell-based, human; conditions: GSK343 (504), over 5 days
Method: Direct cell counts were performed using the Countess II FL Automated Cell Counter (ThermoFisher Scientific). Alamar blue viability (ThermoFisher Scientific) and the 5-bromo-2′-deoxyuridine (BrdU) incorporated cell proliferation assay (Cell Signaling Technology Cat #6813) were performed using the manufacturer's standard protocol. EC50 curve analysis was performed using raw fluorescent Alamar blue values that were inputted into PRISM 7.0. Drug concentrations were log 10 transformed and values normalized to percent viability with respect to vehicle treated cells. EC50 values were interpolated from a log inhibitor vs. normalized response with variable slope using a least square fit model.

[2] = target: T1, EZH2 (Homo sapiens, UniProt Q15910); experiment: Western blot of H3K27Me3, RAS activation and p16 in NSCs treated with EZH2 inhibitor; assay type: cell-based; conditions: GSK343 (504)
T1 construct: endogenous in cells; host or cells: H9 hESC-derived human neural stem cells
T1 sequence (Q15910 whole entry): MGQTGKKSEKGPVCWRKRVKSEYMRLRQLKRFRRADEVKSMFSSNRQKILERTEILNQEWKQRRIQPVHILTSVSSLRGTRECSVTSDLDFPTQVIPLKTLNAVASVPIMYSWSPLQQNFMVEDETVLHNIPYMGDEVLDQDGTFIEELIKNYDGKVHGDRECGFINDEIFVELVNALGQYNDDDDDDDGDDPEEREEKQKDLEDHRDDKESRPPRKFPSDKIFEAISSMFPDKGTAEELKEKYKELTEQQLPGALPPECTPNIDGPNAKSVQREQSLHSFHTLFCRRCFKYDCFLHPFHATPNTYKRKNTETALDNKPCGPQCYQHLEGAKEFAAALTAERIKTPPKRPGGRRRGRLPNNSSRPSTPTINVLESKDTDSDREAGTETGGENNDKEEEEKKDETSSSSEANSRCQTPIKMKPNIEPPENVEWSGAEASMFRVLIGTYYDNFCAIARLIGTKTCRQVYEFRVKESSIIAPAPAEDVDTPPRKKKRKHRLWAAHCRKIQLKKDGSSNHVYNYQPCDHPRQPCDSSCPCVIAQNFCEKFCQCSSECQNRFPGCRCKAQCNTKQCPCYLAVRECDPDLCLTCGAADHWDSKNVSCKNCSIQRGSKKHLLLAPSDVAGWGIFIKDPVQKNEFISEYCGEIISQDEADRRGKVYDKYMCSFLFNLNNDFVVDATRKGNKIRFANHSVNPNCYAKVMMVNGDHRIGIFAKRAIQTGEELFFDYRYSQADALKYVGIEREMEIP
T1 sequence (O75530 whole entry partner): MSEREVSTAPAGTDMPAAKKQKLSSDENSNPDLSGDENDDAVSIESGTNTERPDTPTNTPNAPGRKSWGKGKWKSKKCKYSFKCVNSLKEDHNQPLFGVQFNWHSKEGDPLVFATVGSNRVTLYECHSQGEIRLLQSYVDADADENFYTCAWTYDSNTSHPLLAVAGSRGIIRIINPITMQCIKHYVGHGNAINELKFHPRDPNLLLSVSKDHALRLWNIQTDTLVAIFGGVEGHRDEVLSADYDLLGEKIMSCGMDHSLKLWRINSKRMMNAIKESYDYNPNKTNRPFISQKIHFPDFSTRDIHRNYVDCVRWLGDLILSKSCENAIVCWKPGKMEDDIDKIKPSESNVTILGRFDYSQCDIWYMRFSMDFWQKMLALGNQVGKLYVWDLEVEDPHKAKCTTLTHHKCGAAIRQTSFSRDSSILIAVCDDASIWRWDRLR
T1 sequence (Q15022 whole entry partner): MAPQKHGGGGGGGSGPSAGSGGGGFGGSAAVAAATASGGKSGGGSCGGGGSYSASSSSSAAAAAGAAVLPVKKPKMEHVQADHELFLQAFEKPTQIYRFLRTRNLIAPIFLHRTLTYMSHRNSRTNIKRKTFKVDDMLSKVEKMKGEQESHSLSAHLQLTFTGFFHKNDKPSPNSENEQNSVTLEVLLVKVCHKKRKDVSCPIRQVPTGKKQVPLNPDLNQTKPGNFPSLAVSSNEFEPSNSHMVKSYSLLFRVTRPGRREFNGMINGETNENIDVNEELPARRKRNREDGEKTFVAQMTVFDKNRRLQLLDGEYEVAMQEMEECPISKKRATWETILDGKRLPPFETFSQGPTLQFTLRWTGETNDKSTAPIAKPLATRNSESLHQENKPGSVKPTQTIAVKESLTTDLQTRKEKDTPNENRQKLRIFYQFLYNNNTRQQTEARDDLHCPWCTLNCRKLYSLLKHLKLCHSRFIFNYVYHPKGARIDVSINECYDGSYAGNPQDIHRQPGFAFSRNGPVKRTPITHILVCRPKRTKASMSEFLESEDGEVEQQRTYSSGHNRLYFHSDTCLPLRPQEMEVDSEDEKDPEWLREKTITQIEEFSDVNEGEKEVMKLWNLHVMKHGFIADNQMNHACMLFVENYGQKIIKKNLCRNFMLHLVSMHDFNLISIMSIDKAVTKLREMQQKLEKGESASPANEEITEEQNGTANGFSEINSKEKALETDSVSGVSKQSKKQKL
T1 sequence (Q09028 whole entry partner): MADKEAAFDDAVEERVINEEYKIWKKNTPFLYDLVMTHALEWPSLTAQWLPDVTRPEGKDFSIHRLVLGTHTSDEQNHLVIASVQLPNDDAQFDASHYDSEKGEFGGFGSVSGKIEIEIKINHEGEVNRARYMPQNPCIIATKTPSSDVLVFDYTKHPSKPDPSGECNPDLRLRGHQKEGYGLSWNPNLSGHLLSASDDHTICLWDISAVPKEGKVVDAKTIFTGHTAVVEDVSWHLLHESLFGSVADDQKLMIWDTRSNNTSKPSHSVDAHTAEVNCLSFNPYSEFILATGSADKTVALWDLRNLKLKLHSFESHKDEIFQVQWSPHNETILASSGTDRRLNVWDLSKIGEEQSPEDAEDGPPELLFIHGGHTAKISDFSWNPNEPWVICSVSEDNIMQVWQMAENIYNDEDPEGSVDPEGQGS
Method: RAS activity was measured using the RAS activation assay (Cell Signaling Technology, Cat #8814). Briefly, active Ras Detection GST-RAF1-RBD fusion protein was used to bind the activated form of GTP-bound RAS, which was then immunoprecipitated from 500 μg of total cell lysate with glutathione resin. RAS activation levels were then determined by western blot using a RAS Mouse mAb. Activated RAS immune-precipitate was normalized to total RAS from whole cell lysate.
(§1) Cell pellets were lysed in PLC lysis buffer containing protease and phosphatase inhibitors (Roche Inc.). Protein lysates were quantified using the bicinchoninic acid (BCA) assay (Pierce Chemical Co., Rockford, Ill.). 30 μg of total protein lysate was loaded in 10% SDS-PAGE gels and electrophoresed. Proteins were transferred to PVDF membranes using a semi-dry transfer apparatus (Bio-Rad). Membranes were blocked for one hour and probed for various proteins overnight in 5% non-fat milk or 5% BSA in Tris Buffered Saline Solution, 0.5% Tween-20 (TBST) or Phosphate Buffered Saline Solution with 0.5% Tween-20 (PBST). Membranes were washed for 5 mins in TBST (3×) and incubated with horseradish peroxidase-conjugated antibodies specific for the primary antibody (BioRad Laboratories, Inc., CA, USA). Binding was detected using Chemiluminescence Reagent Plus (PerkinElmer Inc., MA, USA).

[3] = tested on: MYC; experiment: Western blot of phospho MYC S62 and total MYC in DIPG cells; assay type: cell-based, human; conditions: DIPG-IV cells with ERK5 knockdown (Dox); MG132 10 uM
Method: as §1

[4] = tested on: RASAL1; experiment: Western blot of RASAL1 after decitabine treatment; assay type: cell-based, human; conditions: DIPG-007 and NSC H3K27M cells; 5 days; 1 μM
Method: as §1

## CCCc1cc(C)[nH]c(=O)c1CNC(=O)c1cc(-c2ccnc(N3CCN(C)CC3)c2)cc2c1cnn2C(C)C [GSK343]
[1]
  cell proliferation: reduced cell proliferation
[2]
  CDKN2A locus (p16 protein immunoblot): activation of the CDKN2A locus
  H3K27Me3: loss of H3K27Me3
  activated RAS: reduced activated RAS

## CC(C)C[C@@H](C=O)NC(=O)[C@H](CC(C)C)NC(=O)[C@H](CC(C)C)NC(=O)OCc1ccccc1 [MG132] (Cbz-Leu-Leu-Leu-aldehyde)
[3]
  protein expression of total MYC: restored

## Nc1ncn([C@H]2C[C@H](O)[C@@H](CO)O2)c(=O)n1 [decitabine, 5-aza-2′-deoxycytidine]
[4]
  expression of RASAL1 protein: restored
